Data: PMC4774911, “Biochemical Screening of Five Protein Kinases from Plasmodium falciparum against 14,000 Cell-Active Compounds” (PLoS ONE, 2016)
Like-named read-outs stand apart in the source and are kept apart here.

Experiments:
P. falciparum 3D7 cells = details: cited from earlier work
DD2 [1] = test system: DD2; set-up: method as in downloaded from ChEMBL; details: ref downloaded from ChEMBL; cited from earlier work
[2] = target: T1, Plasmodium falciparum calcium-dependent protein kinase 1 (CDPK1) (Plasmodium falciparum, UniProt P62344); assay: CDPK1 Kinase-Glo ATP-consumption screen and dose-response; format: biochemical; details: hits below 1 uM; read-out: CDPK1 IC50
T1 construct: 6-Histidine (N); made in house
T1 sequence (P62344 whole entry): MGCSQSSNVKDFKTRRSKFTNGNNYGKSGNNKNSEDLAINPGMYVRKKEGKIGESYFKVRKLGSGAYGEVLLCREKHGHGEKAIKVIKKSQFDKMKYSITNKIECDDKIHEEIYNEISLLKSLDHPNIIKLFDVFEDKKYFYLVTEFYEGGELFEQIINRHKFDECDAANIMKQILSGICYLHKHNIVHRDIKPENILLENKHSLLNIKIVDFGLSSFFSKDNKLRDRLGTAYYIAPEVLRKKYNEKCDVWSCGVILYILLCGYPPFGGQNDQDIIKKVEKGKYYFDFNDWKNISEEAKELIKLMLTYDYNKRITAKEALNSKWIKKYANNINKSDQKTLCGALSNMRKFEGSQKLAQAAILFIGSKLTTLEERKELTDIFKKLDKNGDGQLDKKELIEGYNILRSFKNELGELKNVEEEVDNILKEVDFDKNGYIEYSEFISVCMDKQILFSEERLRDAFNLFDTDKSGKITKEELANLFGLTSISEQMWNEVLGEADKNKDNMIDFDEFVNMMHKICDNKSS
Summary of the method: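 Single-point testing used 1 μM final compound, then dose-response, against CDPK4 and CDPK1 with Syntide-2 (40 μM) as substrate. After 90 min, reactions were halted by 5 mM EGTA, and kinase activity was inferred from depleted ATP via Kinase-Glo luminescence.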

3D7 PFLDH [3] = test system: 3D7 PFLDH; set-up: method as in downloaded from ChEMBL; details: ref downloaded from ChEMBL; cited from earlier work
HepG2 cells = details: cited from earlier work
3D7 PFLDH [4] = test system: 3D7 PFLDH; set-up: method as in F.J. Gamo et al., Nature 2010; details: downloaded from ChEMBL ref F.J. Gamo et al., Nature 2010; cited from earlier work
DD2 [5] = test system: DD2; set-up: method as in F.J. Gamo et al., Nature 2010; details: P. falciparum Dd2; downloaded from ChEMBL ref F.J. Gamo et al., Nature 2010; cited from earlier work
[6] = target: T2, Plasmodium falciparum protein kinase 6 (PK6) (Plasmodium falciparum, UniProt Q8IDW1); assay: biochemical
T2 construct: 6-Histidine (N); made in house
T2 sequence (Q8IDW1 1-305): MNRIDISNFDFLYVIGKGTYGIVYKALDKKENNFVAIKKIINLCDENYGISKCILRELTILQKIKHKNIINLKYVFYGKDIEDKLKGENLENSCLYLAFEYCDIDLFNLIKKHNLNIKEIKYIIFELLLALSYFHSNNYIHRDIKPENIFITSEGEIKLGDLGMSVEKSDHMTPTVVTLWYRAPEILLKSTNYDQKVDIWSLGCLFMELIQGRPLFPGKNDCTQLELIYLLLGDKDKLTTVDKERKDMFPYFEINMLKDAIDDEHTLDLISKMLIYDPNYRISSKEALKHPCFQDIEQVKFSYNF

3D7 PFLDH [7] = test system: 3D7 PFLDH; set-up: method as in F.J. Gamo et al., Nature 2010; concentration or dose not given beside the values; details: downloaded from ChEMBL, ref F.J. Gamo et al., Nature 2010; cited from earlier work
DD2 [8] = test system: DD2; set-up: method as in F.J. Gamo et al., Nature 2010; details: downloaded from ChEMBL, ref F.J. Gamo et al., Nature 2010; cited from earlier work
[9] = 3D7, ref downloaded from ChEMBL
[10] = HEPG2, ref downloaded from ChEMBL
[11] = P. falciparum 3D7, downloaded from ChEMBL ref F.J. Gamo et al., Nature 2010
[12] = hits below 1 uM, read-out: PK6 IC50
[13] = HepG2 cells, downloaded from ChEMBL ref F.J. Gamo et al., Nature 2010
[14] = 3D7, downloaded from ChEMBL, ref F.J. Gamo et al., Nature 2010
[15] = HepG2, downloaded from ChEMBL, ref F.J. Gamo et al., Nature 2010

IC50 [2] | IC50 [6, 12] | Compound | PCT_IHB_3D7 (P. falciparum 3D7 cells; [9]) | pXC50_3D7 (P. falciparum 3D7 cells; [9]) | PCT_INHB_DD2 (DD2 [1]) | PCT_INHIB_3D7_PFLDH (3D7 PFLDH [3]) | PCT_INHIB_HEPG2 (HepG2 cells; [10]) | PCT_IHB_3D7 (P. falciparum 3D7 cells; [11]) | pXC50_3D7 (P. falciparum 3D7 cells; [11]) | PCT_INHIB_3D7_PFLDH (3D7 PFLDH [4]) | PCT_INHB_DD2 (DD2 [5]) | PCT_INHIB_HEPG2 (HepG2 cells; [13]) | PCT_IHB_3D7 (P. falciparum 3D7 cells; [14]) | pXC50_3D7 (P. falciparum 3D7 cells; [14]) | PCT_INHIB_3D7_PFLDH (3D7 PFLDH [7]) | PCT_INHIB_HEPG2 (HepG2 cells; [15]) | PCT_INHB_DD2 (DD2 [8]) | IC50 [6]
145 nM | – | COc1cc2nccc(Nc3ccc(Oc4ccccc4)cc3)c2cc1OC.Cl [TCMDC-131917] | 100 | 6.165 | 99 | 0 | 13 | – | – | – | – | – | – | – | – | – | – | –
145 nM | 133 nM | CNC(=O)c1ccccc1Nc1nc(Nc2cccc(CS(C)(=O)=O)c2)ncc1C.O=CO [TCMDC-133809] | – | – | – | – | – | – | – | – | – | – | 97% | 6.2733 | 0% | 74% | 95% | –
58 nM | 80 nM | Cl.NC(=O)c1ccccc1Nc1nc(Nc2cccc(N3CCN(CCO)CC3)c2)ncc1Cl [TCMDC-134114] | – | – | – | – | – | – | – | – | – | – | 95% | 7.402 | 1% | 93% | 98% | –
89 nM | 61 nM | COc1ccc(Nc2ncc(C#N)c(Nc3ccccc3C(N)=O)n2)cc1N1CCN(C)CC1.Cl [TCMDC-134117] | – | – | – | – | – | – | – | – | – | – | 93% | 6.867 | 0% | 56% | 97% | –
45 nM | 143 nM | CNC(=O)c1ccccc1Nc1nc(Nc2ccc(N3CCN(C)CC3)nc2)ncc1C.Cl [TCMDC-134123] | – | – | – | – | – | – | – | – | – | – | 92% | 5.942 | 4% | 75% | 50% | –
144 nM | 42 nM | CNC(=O)c1ccccc1Nc1nc(Nc2ccc(N3CCOCC3)cc2)ncc1Cl.Cl [TCMDC-134144] | – | – | – | – | – | – | – | – | – | – | 97% | 6.138 | 0% | 75% | 97% | –
967 nM | 270 nM | COc1ccc(Nc2ncc(OC)c(Nc3ccccc3C(N)=O)n2)cc1N1CCN(C)CC1.O=CO [TCMDC-134149] | – | – | – | – | – | – | – | – | – | – | 100% | 6.131 | 0% | 63% | 96% | –
559 nM | 86 nM | COc1ccc(Nc2ncc(Cl)c(Nc3cccnc3C(N)=O)n2)cc1N1CCN(C)CC1.Cl [TCMDC-134163] | – | – | – | – | – | – | – | – | – | – | 95% | 6.6478 | 6% | 77% | 97% | –
76 nM | 129 nM | Cc1cc(Nc2ncc(Cl)c(Nc3ccccc3C(N)=O)n2)n[nH]1 [TCMDC-134170] | – | – | – | – | – | – | – | – | – | – | 98% | 6.091 | 0% | 70% | 96% | –
310 nM | – | COc1ccc(-c2cnc3ccc(N4CCCC4)nn23)cc1OC.O=CO [TCMDC-134177] | 98 | 6.113 | 98 | 0 | 40 | – | – | – | – | – | – | – | – | – | – | –
145 nM | 385 nM | CS(=O)(=O)Cc1ccc(Nc2nccc(N3CCCc4cc(NC(=O)Nc5cccc(C(F)(F)F)c5)ccc43)n2)cc1 [TCMDC-134309] | – | – | – | – | – | – | – | – | – | – | 100% | 6.829 | 0% | 46% | 99% | –
157 nM | – | COc1ccc(-c2cnn3ccc(Nc4cc(OC)c(OC)c(OC)c4)nc23)cc1OC [TCMDC-134383] | 98 | 6.187 | 100 | 0 | 57 | – | – | – | – | – | – | – | – | – | – | –
312 nM | – | COc1ccc(Nc2ncc3c(-c4cccc(NC(=O)Cc5cccc(O)c5)c4)c[nH]c3n2)cc1OC [TCMDC-135247] | 100 | 6.156 | 96 | 0 | 44 | – | – | – | – | – | – | – | – | – | – | –
390 nM | – | COc1ccc(-c2cnc3[nH]cc(-c4ccncc4)c3c2)cc1OC [TCMDC-135853] | 98 | 6.899 | 97 | 0 | 52 | – | – | – | – | – | – | – | – | – | – | –
552 nM | – | CS(=O)(=O)Nc1cccc(-c2cnc3[nH]cc(-c4ccc(CN)cc4)c3c2)c1 [TCMDC-136218] | 98 | 6.0063 | 95 | 2 | 27 | – | – | – | – | – | – | – | – | – | – | –
387 nM | – | CS(=O)(=O)Nc1cccc(-c2cnc3[nH]cc(-c4cccc(CN)c4)c3c2)c1 [TCMDC-136219] | 96 | 5.779 | 82 | 0 | 25 | – | – | – | – | – | – | – | – | – | – | –
997 nM | – | Cl.Oc1cccc(Nc2ccnc3cc(-c4nccs4)ccc23)c1 [TCMDC-138297] | 98 | – | – | 0 | 0 | – | – | – | – | – | – | – | – | – | – | –
232 nM | 179 nM | CN1CCN(c2ccc(Nc3nccc(-c4cnn5ncccc45)n3)cc2Cl)CC1 [TCMDC-138688] | – | – | – | – | – | 95 | 6.08 | 0 | 92 | 65 | – | – | – | – | – | –
– | 402 nM | CN(c1ccc(NC(=O)Nc2cccc(Cl)c2)cc1)c1ccnc(N)n1.Cl [TCMDC-138782] | – | – | – | – | – | – | – | – | – | – | 100% | 6.202 | 0% | 75% | 40% | –
– | 246 nM | NS(=O)(=O)c1cccc(Nc2nccc(-c3cnn4ncccc34)n2)c1 [TCMDC-138919] | – | – | – | – | – | 89 | 6.18 | 0 | 89 | 39 | – | – | – | – | – | –
– | – | CCN(CC)CCNc1nccc(N(C)c2ccc(NC(=O)Nc3cc(C(F)(F)F)ccc3F)cc2)n1.O=C(O)C(F)(F)F [TCMDC-141632] | – | – | – | – | – | – | – | – | – | – | 97% | 6.26 | 1% | 74% | 25% | 917 nM

Compound | IC50 [2] | IC50 [6, 12] | PCT_IHB_3D7 (P. falciparum 3D7 cells; [9]) | pXC50_3D7 (P. falciparum 3D7 cells; [9]) | PCT_INHB_DD2 (DD2 [1]) | PCT_INHIB_3D7_PFLDH (3D7 PFLDH [3]) | PCT_INHIB_HEPG2 (HepG2 cells; [10]) | PCT_IHB_3D7 (P. falciparum 3D7 cells; [11]) | pXC50_3D7 (P. falciparum 3D7 cells; [11]) | PCT_INHIB_3D7_PFLDH (3D7 PFLDH [4]) | PCT_INHB_DD2 (DD2 [5]) | PCT_INHIB_HEPG2 (HepG2 cells; [13]) | PCT_IHB_3D7 (P. falciparum 3D7 cells; [14]) | pXC50_3D7 (P. falciparum 3D7 cells; [14]) | PCT_INHIB_3D7_PFLDH (3D7 PFLDH [7]) | PCT_INHIB_HEPG2 (HepG2 cells; [15]) | PCT_INHB_DD2 (DD2 [8]) | IC50 [6]
Nc1ncc(-c2cccc(F)c2)cc1-c1nc2cc(F)ccc2[nH]1.O=C(O)C(F)(F)F [TCMDC-133132] | – | 206 nM | – | – | – | – | – | 100 | 6.757 | 0 | 88 | 54 | – | – | – | – | – | –
O=C(O)C(F)(F)F.O=c1[nH]ccc2nc(N[C@@H]3CCCNC3)nc(Nc3ccc(S(=O)(=O)N4CCOCC4)cc3)c12 [TCMDC-135038] | 146 nM | 115 nM | – | – | – | – | – | – | – | – | – | – | 96% | 6.13 | 0% | 13% | 99% | –
CS(=O)(=O)c1cccc(-c2cnc3[nH]cc(-c4cccc(CCN)c4)c3c2)c1.O=C(O)C(F)(F)F [TCMDC-136307] | 44 nM | – | 99 | 5.808 | 74 | 0 | 0 | – | – | – | – | – | – | – | – | – | – | –
CN(c1ccc(NC(=O)Nc2cc(C(F)(F)F)ccc2F)cc1)c1ccnc(NCCN2CCOCC2)n1.O=C(O)C(F)(F)F [TCMDC-141590] | – | 520 nM | – | – | – | – | – | – | – | – | – | – | 97% | 6.29 | 0% | 67% | 73% | –
CCN(CC)CCCNc1nccc(N(C)c2ccc(NC(=O)Nc3cc(C(F)(F)F)ccc3F)cc2)n1.O=C(O)C(F)(F)F [TCMDC-141634] | – | 705 nM | – | – | – | – | – | – | – | – | – | – | 94% | 5.978 | 0% | 96% | 19% | –
CN(c1ccc(NC(=O)Nc2cc(C(C)(C)C)on2)cc1)c1ccnc(NCCN2CCOCC2)n1.O=C(O)C(F)(F)F [TCMDC-141706] | – | 375 nM | – | – | – | – | – | – | – | – | – | – | 95% | 5.949 | 0% | 51% | 18% | –
